According to patent publication US8541588B2, “Sulfonamide derivatives” (Pfizer Limited, priority 2009, dated 2013):
Structures can show the parent of a compound that is named as a salt.

Biological target: T1, Nav1.7 (or SCN9A) channel; HEK cells stably transfected with hSCN9A (Homo sapiens, UniProt Q15858)
T1 construct: expressed in transfected cells
Experiment: Nav1.7 block, PatchXpress 7000 automated whole-cell voltage clamp, estimated IC50 (EIC50)
Type: cell-based
Details: PatchXpress platform, estimated IC50

[1] = hSCN9A HEK cells held at V1/2 of inactivation
[2] = hSCN9A HEK cells, Examples 283-814
[3] = hSCN9A HEK cells, Examples 815-1040

T1 sequence (Q15858 whole entry): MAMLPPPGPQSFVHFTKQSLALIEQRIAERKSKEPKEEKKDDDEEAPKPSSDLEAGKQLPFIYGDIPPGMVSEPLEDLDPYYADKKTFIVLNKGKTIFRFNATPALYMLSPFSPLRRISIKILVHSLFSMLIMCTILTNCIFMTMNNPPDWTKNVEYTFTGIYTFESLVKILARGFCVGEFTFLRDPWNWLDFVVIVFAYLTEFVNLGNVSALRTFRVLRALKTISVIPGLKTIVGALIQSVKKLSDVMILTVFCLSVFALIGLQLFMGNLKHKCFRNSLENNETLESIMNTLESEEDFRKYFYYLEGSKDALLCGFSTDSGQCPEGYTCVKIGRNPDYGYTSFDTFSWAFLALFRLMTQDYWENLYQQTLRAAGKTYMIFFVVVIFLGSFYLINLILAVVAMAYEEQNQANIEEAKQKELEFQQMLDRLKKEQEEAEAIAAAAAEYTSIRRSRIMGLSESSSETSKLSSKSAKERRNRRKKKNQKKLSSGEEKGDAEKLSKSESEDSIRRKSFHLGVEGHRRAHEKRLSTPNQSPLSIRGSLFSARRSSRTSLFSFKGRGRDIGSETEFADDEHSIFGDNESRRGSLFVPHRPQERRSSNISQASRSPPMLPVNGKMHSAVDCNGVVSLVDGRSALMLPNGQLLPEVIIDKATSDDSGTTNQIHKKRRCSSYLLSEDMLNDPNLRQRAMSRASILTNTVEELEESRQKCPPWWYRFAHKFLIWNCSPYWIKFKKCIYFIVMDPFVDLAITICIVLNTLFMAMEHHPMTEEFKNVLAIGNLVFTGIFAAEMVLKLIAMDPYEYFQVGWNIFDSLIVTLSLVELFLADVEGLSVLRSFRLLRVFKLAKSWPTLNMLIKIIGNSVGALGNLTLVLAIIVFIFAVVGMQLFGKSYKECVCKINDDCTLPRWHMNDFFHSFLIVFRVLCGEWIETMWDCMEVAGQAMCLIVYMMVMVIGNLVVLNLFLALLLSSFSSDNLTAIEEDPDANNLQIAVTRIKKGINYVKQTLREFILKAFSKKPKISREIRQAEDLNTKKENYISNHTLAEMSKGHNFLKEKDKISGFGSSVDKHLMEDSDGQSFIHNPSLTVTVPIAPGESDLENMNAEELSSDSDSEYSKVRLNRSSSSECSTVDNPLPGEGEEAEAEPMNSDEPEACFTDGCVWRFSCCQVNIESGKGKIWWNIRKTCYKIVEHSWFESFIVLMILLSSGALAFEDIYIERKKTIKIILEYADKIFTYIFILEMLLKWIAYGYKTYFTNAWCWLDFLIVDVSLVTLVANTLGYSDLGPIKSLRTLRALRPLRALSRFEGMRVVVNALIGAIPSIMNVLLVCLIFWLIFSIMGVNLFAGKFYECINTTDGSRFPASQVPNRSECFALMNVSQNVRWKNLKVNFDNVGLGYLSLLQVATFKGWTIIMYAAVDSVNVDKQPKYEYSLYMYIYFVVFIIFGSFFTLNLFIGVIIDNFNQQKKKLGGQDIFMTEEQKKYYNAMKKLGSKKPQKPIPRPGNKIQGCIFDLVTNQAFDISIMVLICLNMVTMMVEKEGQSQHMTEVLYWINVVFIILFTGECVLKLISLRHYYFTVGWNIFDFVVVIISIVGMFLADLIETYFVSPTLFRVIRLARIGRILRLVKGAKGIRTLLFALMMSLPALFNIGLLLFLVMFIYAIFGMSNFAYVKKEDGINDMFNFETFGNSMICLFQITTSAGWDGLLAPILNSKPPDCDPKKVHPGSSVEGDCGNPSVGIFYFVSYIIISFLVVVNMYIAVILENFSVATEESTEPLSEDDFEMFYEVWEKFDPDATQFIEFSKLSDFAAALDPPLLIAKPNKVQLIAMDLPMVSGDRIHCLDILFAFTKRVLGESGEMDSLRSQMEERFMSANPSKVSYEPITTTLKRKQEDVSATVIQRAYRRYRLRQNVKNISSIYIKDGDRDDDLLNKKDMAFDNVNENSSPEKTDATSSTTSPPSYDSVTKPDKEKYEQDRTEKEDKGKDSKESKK

IC50 [1] | IC50 [2] | Structure (SMILES) | further results
0.08 µM |  | Cc1nccn1-c1cc(Cl)ccc1Oc1ccc(S(=O)(=O)Nc2nccs2)cc1C#N [Example 159, 4-[4-chloro-2-(2-methyl-1H-imidazol-1-yl)phenoxy]-3-cyano-N-1,3-thiazol-2-ylbenzenesulfonamide] | 
36.9 µM |  | N#Cc1cc(S(=O)(=O)Nc2nccs2)ccc1Oc1cc(C2CC2)nn1CC(F)(F)F [Example 194, 3-Cyano-4-[5-cyclopropyl-2-(2,2,2-trifluoro-ethyl)-2H-pyrazol-3-yloxy]-N-thiazol-2-yl-benzenesulfonamide] | 
 | >1 µM | CCn1nc(-c2ccc(Oc3ccc(S(=O)(=O)Nc4nccs4)cc3C#N)c(F)c2)cc1C(F)(F)F [Example 324, 3-cyano-4-{4-[1-ethyl-5-(trifluoromethyl)-1H-pyrazol-3-yl]-2-fluorophenoxy}-N-1,3-thiazol-2-ylbenzenesulfonamide] | 
 | 0.37 µM | Cn1nccc1-c1cc(F)ccc1Oc1c(F)cc(S(=O)(=O)Nc2ncns2)cc1C#N [Example 675, 3-cyano-5-fluoro-4-[4-fluoro-2-(1-methyl-1H-pyrazol-5-yl)phenoxy]-N-1,2,4-thiadiazol-5-ylbenzenesulfonamide] | 
 | 36 µM | N#Cc1cc(S(=O)(=O)Nc2cnc(Cl)nc2)ccc1Oc1ccccc1-c1ccccc1 [Example 426, 4-(biphenyl-2-yloxy)-N-(2-chloropyrimidin-5-yl)-3-cyanobenzenesulfonamide] | 
 | 3.1 µM | Cn1nccc1-c1cc(Cl)ccc1Oc1ccc(S(=O)(=O)Nc2ncc(F)cc2F)cc1F [Example 667, 4-[4-chloro-2-(1-methyl-1H-pyrazol-5-yl)phenoxy]-N-(3,5-difluoropyridin-2-yl)-3-fluorobenzenesulfonamide] | 
 | 0.26 µM | Cn1nc(C(F)(F)F)cc1-c1ccc(Oc2cc(F)c(S(=O)(=O)Nc3nccs3)cc2F)cc1 [Example 678, 2,5-difluoro-4-{4-[1-methyl-3-(trifluoromethyl)-1H-pyrazol-5-yl]phenoxy}-N-1,3-thiazol-2-ylbenzenesulfonamide] | 
 | 0.088 µM | N#Cc1cc(S(=O)(=O)Nc2nccs2)ccc1Oc1ccc(Cl)cc1-c1[nH]ncc1F [Example 710, 4-[4-chloro-2-(4-fluoro-1H-pyrazol-5-yl)phenoxy]-3-cyano-N-1,3-thiazol-2-ylbenzenesulfonamide] | 
 | 0.0078 µM | N#Cc1cc(S(=O)(=O)Nc2ncns2)ccc1Oc1ccc(C(F)(F)F)cc1-c1ccn[nH]1 [Example 741, 3-cyano-4-[2-(1H-pyrazol-5-yl)-4-(trifluoromethyl)phenoxy]-N-1,2,4-thiadiazol-5-ylbenzenesulfonamide] | 
0.07 µM |  | N#Cc1cc(S(=O)(=O)Nc2nccs2)ccc1Oc1cc(C(F)(F)F)nn1-c1ccccc1 [Example 168, 3-cyano-4-(1-phenyl-3-(trifluoromethyl)-1H-pyrazol-5-yloxy)-N-(thiazol-2-yl)benzenesulfonamide] | 
11.6 µM |  | O=S(=O)(Nc1nccs1)c1ccc(Oc2ccccc2C2CCCCO2)c(F)c1 (centres unmarked) [Example 133, 3-fluoro-4-[2-(tetrahydro-2H-pyran-2-yl)phenoxy]-N-1,3-thiazol-2-ylbenzenesulfonamide] | 
 | 0.15 µM | Cn1nccc1-c1cc(Cl)ccc1Oc1ncc(S(=O)(=O)Nc2nccs2)cc1C#N [Example 739, 6-[4-chloro-2-(1-methyl-1H-pyrazol-5-yl)phenoxy]-5-cyano-N-1,3-azol-2-ylpyridine-3-sulfonamide] | 
 | 2 µM | Cn1nccc1-c1ccc(C#N)cc1Oc1cc(F)c(S(=O)(=O)Nc2ncc(Cl)s2)cc1F [Example 615, N-(5-chloro-1,3-thiazol-2-yl)-4-[5-cyano-2-(1-methyl-1H-pyrazol-5-yl)phenoxy]-2,5-difluorobenzenesulfonamide] | 
 | >0.30 µM | Cn1ncnc1-c1cc(Cl)ccc1Oc1ccc(S(=O)(=O)Nc2ncc(F)s2)cc1C#N [Example 717, 4-[4-chloro-2-(1-methyl-1H-1,2,4-triazol-5-yl)phenoxy]-3-cyano-N-(5-fluoro-1,3-thiazol-2-yl)benzenesulfonamide] | 
30.44 µM |  | Cc1cccc(-c2cc(F)cc(F)c2)c1Oc1ccc(S(=O)(=O)Nc2ncns2)cc1C#N [Example 45, 3-cyano-4-[(3′,5′-difluoro-3-methylbiphenyl-2-yl)oxy]-N-1,2,4-thiadiazol-5-ylbenzenesulfonamide] | 
>1 µM |  | N#Cc1cc(S(=O)(=O)Nc2ncns2)ccc1Oc1ccc(F)cc1C1CC1 [Example 6, 3-cyano-4-(2-cyclopropyl-4-fluorophenoxy)-N-1,2,4-thiadiazol-5-ylbenzenesulfonamide] | 
12.9 µM |  | Cn1ccnc1NS(=O)(=O)c1ccc(Oc2ccccc2-c2ccccc2)c(C#N)c1 [Example 113, 4-(biphenyl-2-yloxy)-3-cyano-N-(1-methyl-1H-imidazol-2-yl)benzenesulfonamide] | 
 |  | O=S(=O)(Nc1ncns1)c1ccc(Oc2ccc(C(F)(F)F)cc2-c2ccnnc2)c(C(F)(F)F)c1 [Example 976, 4-[2-pyridazin-4-yl-4-(trifluoromethyl)phenoxy]-N-1,2,4-thiadiazol-5-yl-3-(trifluoromethyl)benzenesulfonamide] | IC50 [3]: 0.0025 µM
1.81 µM |  | Cc1nc(-c2ccccc2Oc2ccc(S(=O)(=O)Nc3nccs3)cc2C#N)cs1 [Example 166, 3-cyano-4-(2-(2-methylthiazol-4-yl)phenoxy)-N-(thiazol-2-yl)benzenesulfonamide] | 
 | >1 µM | N#Cc1cc(S(=O)(=O)Nc2ncns2)ccc1Oc1ccc(-n2cc(COC(=O)C(F)(F)F)cn2)cc1 [Example 287, [1-(4-{2-cyano-4-[(1,2,4-thiadiazol-5-ylamino)sulfonyl]phenoxy}phenyl)-1H-pyrazol-4-yl]methyl trifluoroacetate] | 
 | >1 µM | Cc1scnc1NS(=O)(=O)c1cc(Cl)c(Oc2ccc(F)cc2-c2ccnn2C)cc1F [Example 630, 5-chloro-2-fluoro-4-(4-fluoro-2-(1-methyl-1H-pyrazol-5-yl)phenoxy)-N-(5-methylthiazol-4-yl)benzenesulfonamide] | 
 |  | N#Cc1cc(S(=O)(=O)Nc2ncns2)ccc1Oc1ccc(C(F)(F)F)cc1-c1ccc[n+]([O-])c1 [Example 979, 3-cyano-4-[2-(1-oxidopyridin-3-yl)-4-(trifluoromethyl)phenoxy]-N-1,2,4-thiadiazol-5-ylbenzenesulfonamide] | IC50 [3]: 0.11 µM
0.81 µM |  | Cc1nc(-c2ccccc2Oc2ccc(S(=O)(=O)Nc3nccs3)c(F)c2)cs1 [Example 2] | 
 | >3 µM | COc1cc(Oc2ccc(S(=O)(=O)Nc3ccc(F)cn3)cc2C#N)ccc1-n1cccn1 [Example 579, 3-cyano-N-(5-fluoropyridin-2-yl)-4-[3-methoxy-4-(1H-pyrazol-1-yl)phenoxy]benzenesulfonamide] | 
 | 2.4 µM | CCn1nc(C(F)(F)F)cc1-c1ccc(Oc2ccc(S(=O)(=O)Nc3ccc(F)cn3)cc2C#N)cc1 [Example 367, 3-cyano-4-{4-[1-ethyl-3-(trifluoromethyl)-1H-pyrazol-5-yl]phenoxy}-N-(5-fluoropyridin-2-yl)benzenesulfonamide] | 
 |  | N#Cc1cc(S(=O)(=O)Nc2ncns2)ccc1Oc1ccc(C(F)(F)F)cc1-c1ccnn1C1CNC1 [Example 935, 4-[2-(1-azetidin-3-yl-1H-pyrazol-5-yl)-4-(trifluoromethyl)phenoxy]-3-cyano-N-1,2,4-thiadiazol-5-ylbenzenesulfonamide] | IC50 [3]: 0.0038 µM
